Experimental data as given in US4510139A, “Substituted aminobenzamides and their use as agents which inhibit lipoxygenase activity” (Sterling Drug Inc., priority 1984, dated 1985).
Like-named read-outs stand apart in the source and are kept apart here.

Key:
[1] = biological target: T1, cyclooxygenase (Rattus norvegicus, UniProt Q63921); assay: Inhibition of cyclooxygenase derived from rat basophilic leukemia (RBL-1) cells, product C1 (PGD2); type: biochemical
T1 construct: microsomal fraction containing lipoxygenase and cyclooxygenase; endogenous in cells; host or cells: RBL-1 (rat basophilic leukemia) cells, homogenate / microsomal fraction
T1 sequence (Q63921 27-602): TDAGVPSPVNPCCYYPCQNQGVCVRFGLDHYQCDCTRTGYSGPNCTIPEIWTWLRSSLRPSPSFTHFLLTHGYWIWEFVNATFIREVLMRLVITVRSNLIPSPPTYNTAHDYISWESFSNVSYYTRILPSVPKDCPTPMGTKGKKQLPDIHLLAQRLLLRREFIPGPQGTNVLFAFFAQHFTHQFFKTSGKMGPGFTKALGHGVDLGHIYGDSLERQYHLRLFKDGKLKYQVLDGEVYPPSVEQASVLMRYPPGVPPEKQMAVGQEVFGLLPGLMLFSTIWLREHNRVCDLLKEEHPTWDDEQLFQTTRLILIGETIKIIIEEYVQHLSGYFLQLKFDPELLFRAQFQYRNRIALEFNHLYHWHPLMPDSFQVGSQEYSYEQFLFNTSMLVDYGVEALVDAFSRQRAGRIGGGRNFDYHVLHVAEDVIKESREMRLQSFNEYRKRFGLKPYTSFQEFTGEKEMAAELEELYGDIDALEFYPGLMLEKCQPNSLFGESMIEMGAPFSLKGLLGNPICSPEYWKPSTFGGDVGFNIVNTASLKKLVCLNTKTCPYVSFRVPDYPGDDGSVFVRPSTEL
Procedure: (§1) The primary screening test used is a determination of the inhibition of lipoxygenase and cyclooxygenase derived from rat basophilic leukemia (RBL-1) cells. The test was carried out according to the following procedure:
(§2) Single cell suspensions of RBL-1 cells are homogenized to obtain the microsomal fraction containing lipoxygenase and cyclooxygenase. Test compounds are added to the enzyme-containing homogenate for a 5 min preincubation period at 37° C. prior to the addition of ^14 C-arachidonic acid substrate. Following incubation at 37° C. for 15 min, the reaction is stopped by the addition of 2M formic acid and the enzyme-substrate products are extracted into chloroform. An aliquot of the extract is evaporated to dryness, reconstituted in ether to 1/10 original volume, spotted in thin layer chromatography plates and chromatographed. The peak areas of radioactivity representing the products are located by scanning the plates. The quantity of products formed is estimated by measuring the height of the radioactivity peaks observed on the chromatographic scans. Alternatively, the areas of radioactivity are scraped from the plate and the ^14 C quantitated by scintillation counting.

[2] = biological target: T2, lipoxygenase (Rattus norvegicus, UniProt P12527); assay: Inhibition of lipoxygenase derived from rat basophilic leukemia (RBL-1) cells, products L1 (5,12-di-HETE) and L2 (5-HETE); type: biochemical
T2 construct: microsomal fraction containing lipoxygenase and cyclooxygenase; endogenous in cells; host or cells: RBL-1 (rat basophilic leukemia) cells, homogenate / microsomal fraction
T2 sequence (P12527 1-673): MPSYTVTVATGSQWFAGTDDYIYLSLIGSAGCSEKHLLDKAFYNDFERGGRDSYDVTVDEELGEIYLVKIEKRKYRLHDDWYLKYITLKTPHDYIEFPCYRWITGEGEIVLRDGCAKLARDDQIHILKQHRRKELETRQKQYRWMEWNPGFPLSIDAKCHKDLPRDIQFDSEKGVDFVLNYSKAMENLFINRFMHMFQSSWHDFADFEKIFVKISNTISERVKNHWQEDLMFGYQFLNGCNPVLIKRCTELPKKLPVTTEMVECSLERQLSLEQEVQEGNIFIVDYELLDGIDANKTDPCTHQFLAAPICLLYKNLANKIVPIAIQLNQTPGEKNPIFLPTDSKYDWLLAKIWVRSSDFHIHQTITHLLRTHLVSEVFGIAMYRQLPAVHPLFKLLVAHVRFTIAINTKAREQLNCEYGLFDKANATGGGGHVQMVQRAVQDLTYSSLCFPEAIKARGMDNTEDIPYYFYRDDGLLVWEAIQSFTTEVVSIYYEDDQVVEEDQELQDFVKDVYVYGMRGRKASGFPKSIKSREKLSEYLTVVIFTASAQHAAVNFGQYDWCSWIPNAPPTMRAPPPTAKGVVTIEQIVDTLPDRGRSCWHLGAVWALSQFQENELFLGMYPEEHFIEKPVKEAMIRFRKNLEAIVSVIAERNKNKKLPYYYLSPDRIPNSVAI
Procedure: as §1, §2

[3] = system: SRS-A component of immunologically induced broncho-constriction; assay: Effect on the SRS-A component of immunologically induced broncho-constriction in guinea pigs; type: in vivo; settings: guinea pig, intravenous, highest soluble dose (0.1 mg/kg)
Procedure: The test was carried out according to the following procedure:
Two weeks after immunization with egg albumin, guinea pigs are prepared for bronchoconstriction determination. One hour prior to antigen challenge, each animal is dosed orally with indomethacin and chlorpheniramine. Animals are anesthetized with sodium pentobarbital, the trachea cannulated and the animal artifically respired. Arachidonic acid is administered intravenously prior to antigen challenge. The resulting bronchoconstriction is recorded by the standard lung overflow procedure and the peak increase in intratracheal pressure (mm Hg) over a 10 minute observation period is recorded. Compounds are evaluated for their ability to prevent the increased intratracheal pressure in an experimental group of animals as compared to the medicated (indomethacin+chlorpheniramine+arachidonic acid) control group. The results are expressed in terms of percent inhibition or as ED50 values (effective dose in 50% of the animals).

Question: With `O=C(c1ccccc1Nc1ccc(O)cc1)N1CCCCC1` [Example 1(d), 1-[2-(4-Hydroxyphenylamino)benzoyl]piperidine] as the molecule, how does the IC50 [1] read?
Answer: The IC50 was over 100 µM.

Question: And the inhibition at 1 µM ([1]; dose of 1 μM, read-out: % Inhibition of cyclooxygenase (C1) formation)?
Answer: The inhibition at 1 µM was 0%.

Question: What about the IC50 ([2]; IC50 L1, L1 = 5,12-di-HETE) of the same molecule?
Answer: The IC50 was 3.5 µM.

Question: What about the IC50 ([2]; IC50 L2, L2 = 5-HETE) of the same molecule?
Answer: The IC50 was 0.6 µM.

Question: And the inhibition at 1 µM ([2]; read-out: % Inhibition of lipoxygenase (L1) formation)?
Answer: Its inhibition at 1 µM is 19%.

Question: And the inhibition at 1 µM ([2]; read-out: % Inhibition of lipoxygenase (L2) formation)?
Answer: The inhibition at 1 µM was 64%.

Question: What about the “percent inhibition of increased intratracheal pressure (bronchoconstriction)” value [3] of the same molecule?
Answer: Its value is 48%.
